In patent US6855728B2, “Small-molecule modulators of hepatocyte growth factor / scatter factor activities” (North Shore-Long Island Jewish Health System, priority 2001, dated 2005):

What was measured:
[1] = system: HGF/SF induced proliferation of HUVEC; assay: Endothelial cell (HUVEC) proliferation assay in the presence of exogenously-added HGF/SF; format: cell-based, human; details: with HGF/SF; for inhibition at 2 µg/mL / inhibition at 6 µg/mL: Homo sapiens; for inhibition at 2 µg/mL / Activity at 2 microgram/ml With HGF/SF (result in words): 2 microgram/ml; for inhibition at 2 µg/mL / inhibition at 6 µg/mL / Activity at 6 microgram/ml With HGF/SF: inhibition (blocked SF): inhibition of HUVEC proliferation; for inhibition at 2 µg/mL: read-out: Activity at 2 microgram/ml With HGF/SF: inhibition (blocked SF); for inhibition at 6 µg/mL: read-out: Activity at 6 microgram/ml With HGF/SF: inhibition (blocked SF)
From the text: To evaluate inhibitors of activity, compounds may be evaluated directly for anti-proliferative activities, such as the inhibition of cellular proliferation, inhibition of tumor growth, inhibition of scatter, and inhibition of gene expression, and may also be evaluated on their ability to inhibit activity when exposed to cells together with. In such instances, the scatter and/or proliferative activities induced by added will be inhibited by the attendant presence of an inhibitory compound of the invention.
(§1) Cell proliferation assays Endothelial cells (HUVECs) were seeded in 48 well plates at a density of 10,000 to 20,000 cells per well in the normal growth medium (EGM-2-Clonetics) containing 2% fetal bovine serum, FGF, VEGF, IGF, ascorbic acid, EGF, GA, heparin and hydrocortisone. The cells were grown normally in the growth medium for 24 hr at 37 degrees C. and 5% CO2. The cells were then rinsed with RPMI-1% BSA and starved for 1-2 hrs. The stock solutions of all the compounds were made at a concentration of 10 mg/ml in DMSO and diluted in RPMI-1% BSA at a final concentrations of 1 to 12 microgram/ml. The cells were then washed and treated with the compounds and incubated for another 24 hr at 37 degrees C. Then ^3H thymidine (0.5 microgram/ml in RPMI-BSA) was added to the cells and incubated at 37 degrees C. for 4 to 5 hours. The unincorporated thymidine was removed by washing the cells four times with 1× PBS. Then the cells were lysed with 0.5M NaOH for 30 min and the radioactivity counted in the beta counter.

[2] = system: Endothelial cells (HUVECs); assay: Endothelial cell (HUVEC) proliferation assay, 3H thymidine incorporation, compound without added growth factor; format: cell-based, human; details: for Activity at 2 microgram/ml Without HGF/SF: stimulation: stimulation of HUVEC proliferation; for Activity at 6 microgram/ml Without HGF/SF (result in words) / inhibition at 6 µg/mL: 6 microgram/ml
Procedure: as §1, with “counter. […]” for “counter.”

[3] = Homo sapiens, without HGF/SF, inhibition of HUVEC proliferation

SMILES	inhibition at 2 µg/mL [1] [%]	inhibition at 6 µg/mL ([1]; 6 microgram/ml) [%]	Activity at 2 microgram/ml Without HGF/SF (result in words) ([2]; 2 microgram/ml, without HGF/SF)	Activity at 6 microgram/ml Without HGF/SF (result in words) ([2]; without HGF/SF)	Activity at 2 microgram/ml With HGF/SF (result in words) [1]	inhibition at 6 µg/mL [2, 3] [%]	also measured
Cc1nn(C(=O)C(C)(C)C)c(C)c1Cc1c(F)cccc1Cl [1-(4-(2-chloro-6-fluorobenzyl)-3,5-dimethyl-1H-pyrazole-1-yl)2,2-dimethylpropan-1-one]	25	25	No effect	No effect	–	–	–
Cc1nn(-c2onc(-c3c(Cl)cccc3Cl)c2C(=O)NN)c(C)c1Br [(4-bromo-3,5-dimethyl-1H-pyrazol-1-yl)(3-(2,6-dichlorophenyl)isoxazole-4-carbohydrazide)]	–	–	–	–	No effect	–	Activity at 6 microgram/ml With HGF/SF (result in words) ([1]; 6 microgram/ml): No effect; Activity at 2 microgram/ml Without HGF/SF: stimulation ([2]; 2 microgram/ml, without HGF/SF): 74%
Cc1nn(S(=O)(=O)c2ccc(Cl)cc2)c(C)c1Cc1c(Cl)cccc1Cl [1-((4-chlorophenyl)sulfonyl)-4-(2,6-dichlorobenzyl)-3,5-dimethyl-1H-pyrazol]	–	50	No effect	No effect	No effect	–	–
Cc1onc(-c2c(Cl)cccc2Cl)c1C(=O)NNc1c(Cl)cc(Cl)cc1Cl [N′4-(2,4,6-trichlorophenyl)-3-3(2,6-dichlorophenyl)-5-methylisoxazole-4-carbohydrazide]	–	–	No effect	No effect	No effect	–	Activity at 6 microgram/ml With HGF/SF: inhibition (blocked SF) ([1]; 6 microgram/ml): 60%
Cc1nn(C(=O)c2ccc(Cl)cc2)c(C)c1Cc1c(F)cccc1Cl [(4-(2-chloro-6-fluorobenzyl)-3,5-dimethyl-1H-pyrazol-1-yl)(4-chlorophenyl)methanone]	30	90	–	–	–	50	Activity at 2 microgram/ml Without HGF/SF: stimulation ([2]; 2 microgram/ml, without HGF/SF): 40%; activation at 5 µg/mL ([2]; Homo sapiens, HUVEC, 24 h, 5 microg/ml, stimulation of endothelial cell proliferation): 41%; activation at 10 µg/mL ([2]; Homo sapiens, HUVEC, 24 h, 10 microg/ml, stimulation of endothelial cell proliferation): 35%
Cc1onc(-c2c(Cl)cccc2Cl)c1C(=O)NN1CCCCCC1 [N4-azepan-1-yl-3-(2,6-dichlorophenyl)-5-methylisoxazole-4-carboxamide]	–	50	No effect	–	No effect	50	–
Cc1nn(CCC#N)c(C)c1Cc1c(Cl)cccc1Cl [3-(4-(2,6-dichlorobenzyl)-3,5-dimethyl-1H-pyrazol-1-yl)propanenitrile]	36	65	No effect	–	–	34	–
O=C(C=Cc1ccc(Br)cc1)c1ccccc1 [3-(4-Bromophenyl)-1-phenylprop-2-en-1-one]	–	–	–	–	–	–	Stimulation/Inhibition at 6-12 micrograms/ml With (result in words) ([1]; 6-12 micrograms/ml): some additive effect; Stimulation at 1 ug/ml Without HGF/SF ([2]; 1 ug/ml, without HGF/SF, stimulation of endothelial cell proliferation): 40-80% stimulation at 1
Cc1nn(C)c(C)c1Cc1c(F)cccc1Cl [4-(2-chloro-6-fluorobenzyl)-1,3,5-trimethyl-1H-1-pyrazole]	–	–	–	No effect	No effect	–	Activity at 6 microgram/ml With HGF/SF: inhibition (blocked SF) ([1]; 6 microgram/ml): by 30%; Activity at 2 microgram/ml Without HGF/SF: stimulation ([2]; 2 microgram/ml, without HGF/SF): 50%
COc1cc(CCC(=O)NNC(=O)c2c(-c3c(Cl)cccc3Cl)noc2C)cc(OC)c1OC [N′4-(3-(3,4,5-trimethoxyphenyl)propanoyl)-3-(2,6-dichlorophenyl)-5-methylisoxazole-4-carbohydrazide]	50	–	–	Cytotoxic	–	–	inhibition at 2 µg/mL ([2]; Homo sapiens, 2 microgram/ml, without HGF/SF, inhibition of HUVEC proliferation): 50%
Cc1onc(-c2c(Cl)cccc2Cl)c1C(=O)NNc1c(Cl)cccc1Cl [N′4,3-di(2,6-dichlorophenyl)-5-methylisoxazole-4-carbohydrazide]	–	60	No effect	–	not significant	30	–
